Among the data in US9884828B2, “Substituted cinnolines as inhibitors of LRRK2 kinase activity” (Imago Pharmaceuticals, Inc., priority 2011, dated 2018) are IC50 values, retold here.

The experiment addresses recombinant GST-LRRK2 (wild-type) (Homo sapiens (Human), UniProt Q5S007). Put plainly: LRRK2 TR-FRET peptide assay (in vitro kinase activity), wild-type. The experiment is classed as biochemical. Conditions: 100 μM ATP, 100 nM biotin-LRRKtide substrate, 10 nM kinase, 60 minutes at room temperature. The procedure: Compounds as described herein (compounds of Formula I, e.g., compounds of the above Examples) are tested for their in vitro kinase activities using various LRRK2 (including LRRK2 G2019S mutant) assays. […] Serially diluted compounds (1% DMSO as co-solvent) were pre-incubated with recombinant GST-LRRK2 (wild-type, or G2019S mutant, Invitrogen) for 15 minutes at room temperature in 384-well Corning black plates. […] The inhibition of each well was calculated using the control and background readings for that plate. IC50 values were determined from dose-response curves using eight concentrations from the serial dilution of the test compounds.
(In general: Time-resolved FRET reads energy transfer from a long-lived donor to a nearby acceptor.)

Chain of recombinant GST-LRRK2 (wild-type) (Q5S007 whole entry): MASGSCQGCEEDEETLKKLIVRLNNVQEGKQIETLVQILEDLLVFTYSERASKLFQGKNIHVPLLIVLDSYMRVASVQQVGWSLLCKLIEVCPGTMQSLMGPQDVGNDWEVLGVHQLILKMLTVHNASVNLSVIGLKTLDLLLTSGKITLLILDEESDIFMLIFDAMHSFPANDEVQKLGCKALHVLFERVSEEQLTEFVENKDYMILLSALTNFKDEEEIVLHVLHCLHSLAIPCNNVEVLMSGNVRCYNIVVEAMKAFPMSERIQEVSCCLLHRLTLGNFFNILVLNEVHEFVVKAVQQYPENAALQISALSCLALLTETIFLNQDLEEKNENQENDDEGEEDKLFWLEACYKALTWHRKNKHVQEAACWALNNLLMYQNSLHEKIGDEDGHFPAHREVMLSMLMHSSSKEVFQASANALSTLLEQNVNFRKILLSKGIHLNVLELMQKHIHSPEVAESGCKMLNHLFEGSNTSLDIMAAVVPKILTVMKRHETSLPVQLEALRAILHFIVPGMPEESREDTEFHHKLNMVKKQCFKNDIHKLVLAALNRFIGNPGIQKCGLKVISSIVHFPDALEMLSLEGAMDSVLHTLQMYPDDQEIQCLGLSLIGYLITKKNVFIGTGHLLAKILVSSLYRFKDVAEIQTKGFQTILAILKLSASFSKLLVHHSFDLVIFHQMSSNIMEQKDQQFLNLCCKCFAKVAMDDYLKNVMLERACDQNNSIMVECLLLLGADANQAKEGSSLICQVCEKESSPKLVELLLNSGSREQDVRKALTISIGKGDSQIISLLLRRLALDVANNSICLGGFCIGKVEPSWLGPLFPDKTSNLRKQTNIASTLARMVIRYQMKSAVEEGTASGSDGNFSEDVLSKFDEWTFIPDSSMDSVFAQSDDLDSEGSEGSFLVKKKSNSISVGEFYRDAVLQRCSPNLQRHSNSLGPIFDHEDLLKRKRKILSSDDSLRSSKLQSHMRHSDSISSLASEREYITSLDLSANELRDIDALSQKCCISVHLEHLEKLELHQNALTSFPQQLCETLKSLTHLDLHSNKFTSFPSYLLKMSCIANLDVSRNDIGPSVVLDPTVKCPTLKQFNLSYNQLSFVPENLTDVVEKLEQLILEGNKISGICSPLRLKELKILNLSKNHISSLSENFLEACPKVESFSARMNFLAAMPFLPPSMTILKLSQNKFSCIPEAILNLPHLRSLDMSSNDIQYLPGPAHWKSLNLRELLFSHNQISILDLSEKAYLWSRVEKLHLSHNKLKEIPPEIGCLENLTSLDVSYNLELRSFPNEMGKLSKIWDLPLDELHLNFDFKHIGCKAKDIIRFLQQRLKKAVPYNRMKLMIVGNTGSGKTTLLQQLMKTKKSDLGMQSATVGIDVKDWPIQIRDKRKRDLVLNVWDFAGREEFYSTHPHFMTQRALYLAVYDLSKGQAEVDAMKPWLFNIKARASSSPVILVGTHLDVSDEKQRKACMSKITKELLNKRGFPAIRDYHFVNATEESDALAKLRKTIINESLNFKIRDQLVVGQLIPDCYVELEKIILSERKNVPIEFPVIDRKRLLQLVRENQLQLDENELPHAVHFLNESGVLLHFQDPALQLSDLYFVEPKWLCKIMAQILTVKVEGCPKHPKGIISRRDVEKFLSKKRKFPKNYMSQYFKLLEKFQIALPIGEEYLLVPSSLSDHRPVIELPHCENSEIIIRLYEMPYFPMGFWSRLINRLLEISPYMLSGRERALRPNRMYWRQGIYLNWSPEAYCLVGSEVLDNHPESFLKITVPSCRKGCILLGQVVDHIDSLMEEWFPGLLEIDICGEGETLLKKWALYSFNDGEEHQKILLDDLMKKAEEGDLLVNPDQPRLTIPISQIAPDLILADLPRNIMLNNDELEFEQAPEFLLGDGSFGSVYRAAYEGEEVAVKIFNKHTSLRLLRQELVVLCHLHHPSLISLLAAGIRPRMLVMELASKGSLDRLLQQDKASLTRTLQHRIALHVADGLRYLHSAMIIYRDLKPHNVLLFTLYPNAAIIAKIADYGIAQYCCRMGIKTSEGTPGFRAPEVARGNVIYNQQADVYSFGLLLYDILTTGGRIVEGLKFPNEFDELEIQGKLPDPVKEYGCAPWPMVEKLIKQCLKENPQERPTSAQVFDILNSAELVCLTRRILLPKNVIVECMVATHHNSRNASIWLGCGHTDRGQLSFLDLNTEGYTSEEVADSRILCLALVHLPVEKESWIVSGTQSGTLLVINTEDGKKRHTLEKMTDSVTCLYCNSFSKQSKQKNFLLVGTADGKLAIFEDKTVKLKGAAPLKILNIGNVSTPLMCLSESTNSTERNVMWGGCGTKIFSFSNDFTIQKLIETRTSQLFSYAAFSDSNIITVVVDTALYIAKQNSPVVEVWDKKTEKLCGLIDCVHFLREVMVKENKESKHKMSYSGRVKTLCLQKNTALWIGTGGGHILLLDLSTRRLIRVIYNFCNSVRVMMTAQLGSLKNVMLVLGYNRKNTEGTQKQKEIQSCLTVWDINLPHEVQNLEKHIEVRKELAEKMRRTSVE

What is called IC50 is the point on the concentration scale where inhibition reaches its midpoint. As to `COc1cc(-c2nccnc2OC)ccc1-c1ccc2c(N[C@H](C)C3CC3)c(C(N)=O)nnc2c1` [Compound 11-220, (R)-4-(1-cyclopropylethylamino)-7-(2-methoxy-4-(3-methoxypyrazin-2-yl)phenyl)cinnoline-3-carboxamide], the IC50 was found to be 25 nM.

Turning to `CC(C)Nc1c(-c2cscn2)nnc2cc(-c3ccc(S(C)(=O)=O)cc3)ccc12` [Compound 3-70, N-isopropyl-7-(4-(methylsulfonyl)phenyl)-3-(thiazol-4-yl)cinnolin-4-amine], the IC50 was over 100000 nM.

With `C[C@@H](Nc1c(C(N)=O)nnc2cc(-c3ccccc3OC(F)(F)F)ccc12)C1CC1` [Compound 2-108, (R)-4-(1-cyclopropylethylamino)-7-(2-(trifluoromethoxy)phenyl)cinnoline-3-carboxamide], the IC50 was 4300 nM.

As for `CC(C)Nc1c(C(N)=O)nnc2cc(-c3cccnc3)ccc12` [Compound 2-57, 4-(isopropylamino)-7-(pyridin-3-yl)cinnoline-3-carboxamide], the IC50 is 33 nM.

For the molecule `CC(C)Nc1c(C(N)=O)nnc2ccc(-c3ccccc3)cc12` [Compound 2-124, 4-(isopropylamino)-6-phenylcinnoline-3-carboxamide], the IC50 is 630 nM.

As to `COc1cc(-c2ncccc2F)ccc1-c1ccc2c(N[C@H](C)C3CC3)c(C(N)=O)nnc2c1` [Compound 11-218, (R)-4-(1-Cyclopropylethylamino)-7-(4-(3-fluoropyridin-2-yl)-2-methoxyphenyl)cinnoline-3-carboxamide], the IC50 amounted to 43 nM.

Regarding `C[C@@H](Nc1c(C(N)=O)nnc2cc(-c3ccc4c(c3)NC(=O)C4)ccc12)C1CC1` [Compound 2-120, (R)-4-(1-cyclopropylethylamino)-7-(2-oxoindolin-6-yl)cinnoline-3-carboxamide], the IC50 was 1 nM.

On to `CS(=O)(=O)c1ccc(-c2ccc3c(NCC4CCOCC4)c(C(N)=O)nnc3c2)cc1` [Compound 2-89, 7-(4-(methylsulfonyl)phenyl)-4-((tetrahydro-2H-pyran-4-yl)methylamino)cinnoline-3-carboxamide], for which the IC50 was found to be 110 nM.

Take `C[C@@H](Nc1c(C(N)=O)nnc2cc(-c3cncc4ccccc34)ccc12)C1CC1` [Compound 2-105, (R)-4-(1-cyclopropylethylamino)-7-(isoquinolin-4-yl)cinnoline-3-carboxamide]: the IC50 came to 380 nM.

For the molecule `CC(C)Nc1c(C(N)=O)nnc2cc(-n3cccn3)ccc12` [Compound 4-80, 4-(isopropylamino)-7-(1H-pyrazol-1-yl)cinnoline-3-carboxamide], the IC50 was determined as 31 nM.

Consider `CC(C)Nc1c(-c2ncc[nH]2)nnc2cc(-c3ccc(S(C)(=O)=O)cc3)ccc12` [Compound 13-233, 3-(1H-imidazol-2-yl)-N-isopropyl-7-(4-(methylsulfonyl)phenyl)cinnolin-4-amine], for which the IC50 stood at 51 nM.

With `CC(C)Nc1c(C(N)=O)nnc2ccc(-c3nccs3)cc12` [Compound 2-130, 4-(isopropylamino)-6-(thiazol-2-yl)cinnoline-3-carboxamide], the 50% inhibitory concentration (IC50) is 570 nM.

On to `CC(C)Nc1c(C(N)=O)nnc2cc(-c3cccc(F)c3)ccc12` [Compound 2-45, 7-(3-fluorophenyl)-4-(isopropylamino)cinnoline-3-carboxamide], for which the IC50 turned out to be 84 nM.

With `CC(C)Nc1c(C(N)=O)nnc2ccc(-c3ccncc3)cc12` [Compound 2-126, 4-(isopropylamino)-6-(pyridin-4-yl)cinnoline-3-carboxamide], the IC50 stood at 30 nM.

With `CC(C)Nc1c(C#N)nnc2ccc(-c3cn[nH]c3)cc12` [Compound 2-128, 4-(isopropylamino)-6-(1H-pyrazol-4-yl)cinnoline-3-carbonitrile], the IC50 was determined as 120 nM.

Consider `C[C@@H](Nc1c(C(N)=O)nnc2cc(-c3ccc4c(c3)CC(=O)N4)ccc12)C1CC1` [Compound 2-106, (R)-4-(1-cyclopropylethylamino)-7-(2-oxoindolin-5-yl)cinnoline-3-carboxamide], for which the IC50 was found to be 11 nM.
